Measured values as given in US9956197B2 (priority 2013, dated 2018).

What was measured:
[1] = test system: Picrotoxin (PIC) induced clonic seizure; test: animal or person; format: in vivo, ICR mice
[2] = test system: PTZ (Pentylenetetrazol) induced clonic seizure; test: animal or person; format: in vivo, ICR mice; details: for PTZ test (ip) in Mice Peak Time / PTZ test (ip) in Mice Protection %: mouse, in vivo
[3] = test system: Lithium-pilocarpine induced status epilepticus; design: species or system Sprague-Dawley rats; details: in vivo
[4] = test system: ACTH-refractory infantile spasm (behavioral spasms); test: animal or person; format: in vivo, Sprague-Dawley rats; details: for inhibition in vivo at 60 mg/kg: Rattus norvegicus, ip, read-out: ACTH-refractory IS (ip) Protection %, percentage of activity compared to the vehicle only; for ACTH-refractory IS (ip) Peak Time: rat, in vivo
[5] = test system: PTZ (Pentylenetetrazol) induced clonic seizure; design: species or system SD rats; details: rat, in vivo
[6] = Mus musculus, ip, read-out: PIC (ip) percentage of activity compared to the vehicle only

Row | SMILES | responders at 50 mg/kg [1, 6] [%] | Intervention (rat, iv) Protection % [3] | PTZ test (ip) in Mice Protection % [2] | other results
1 | CC[C@H](OC(N)=O)[C@@H](O)c1ccc(Cl)cc1Cl [Compound 39, 1-(2,4-dichlorophenyl)-(S)-1-hydroxybutyl-(S)-2-carbamate] | 66.7 |  |  | PTZ test (ip) in Mice Peak Time ([2]; ip): 0.5 h
2 | C[C@@H](OC(N)=O)[C@H](O)c1c(Cl)cccc1Cl [Compound 46, 1-(2,6-dichlorophenyl)-(R)-1-hydroxypropyl-(R)-2-carbamate] | 33.3 | ^a46 (50%) |  | inhibition in vivo at 60 mg/kg [4]: 78%; ACTH-refractory IS (ip) Peak Time [4]: 3 h
3 | CC(OC(=O)NC1CC1)C(O)c1ccccc1Cl (racemic) [Compound 32, 1-(2-chlorophenyl)-1-hydroxypropyl-2-N-cyclopropylcarbamate] |  | ^a46 (100%) | ^a20.4 (16.7%) | 
4 | C[C@@H](OC(N)=O)[C@H](O)c1ccc(Cl)cc1Cl [Compound 45, 1-(2,4-dichlorophenyl)-(R)-1-hydroxypropyl-(R)-2-carbamate] |  | ^a46 (33.3%) | ^a20.4 (16.7%) | PTZ test (ip) in Rats Protection % [5]: ^b50 (16.7%)
5 | C[C@H](OC(N)=O)[C@H](O)c1ccccc1Cl [Compound 5, 1-(2-chlorophenyl)-(R)-1-hydroxypropyl-(S)-2-carbamate] |  |  |  | PTZ test (ip) in Mice Peak Time ([2]; ip): 0.5 h
6 | CCCC[C@@H](OC(N)=O)[C@H](O)c1ccccc1Cl [Compound 13, 1-(2-chlorophenyl)-(R)-1-hydroxyhexyl-(R)-2-carbamate] | 16.7 |  |  | 
7 | CNC(=O)OC(C)C(O)c1ccccc1Cl (racemic) [Compound 29, 1-(2-chlorophenyl)-1-hydroxypropyl-2-N-methylcarbamate] |  |  | ^a20.4 (33.3%) | 
8 | C[C@@H](OC(N)=O)[C@@H](O)c1ccccc1Cl [Compound 4, 1-(2-chlorophenyl)-(S)-1-hydroxypropyl-(R)-2-carbamate] |  | ^a46 (100%) |  | responders at 30 mg/kg [1, 6]: 100%; PTZ test (ip) in Mice Peak Time ([2]; ip): 0.5 h; inhibition in vivo at 60 mg/kg [4]: 24.3%; ACTH-refractory IS (ip) Peak Time [4]: 3 h
9 | C[C@H](OC(=O)NC1CC1)[C@@H](O)c1ccccc1Cl [Compound 18, 1-(2-chlorophenyl)-(S)-1-hydroxypropyl-(R)-2-N-cyclopropylcarbamate] |  | ^a46 (66.7%) |  | PTZ test (ip) in Rats Protection % [5]: ^b30 (16.7%)
10 | CC(C)[C@H](OC(N)=O)[C@@H](O)c1ccccc1Cl [Compound 9, 1-(2-chlorophenyl)-(S)-1-hydroxy-3-methyl-butyl-(S)-2-carbamate] | 16.7 |  | ^a20.4 (33.3%) | 
11 | CCCNC(=O)O[C@@H](C)[C@@H](O)c1ccccc1Cl [Compound 16, 1-(2-chlorophenyl)-(S)-1-hydroxypropyl-(S)-2-N-propylcarbamate] |  | ^a46 (100%) |  | PTZ test (ip) in Rats Protection % [5]: ^b30 (33.3%)
12 | CC(C)NC(=O)OC(C)C(O)c1ccccc1Cl (racemic) [Compound 31, 1-(2-chlorophenyl)-1-hydroxypropyl-2-N-isopropylcarbamate] | 16.7 | ^a46 (100%) | ^a20.4 (83.3%) | 
13 | C[C@H](OC(N)=O)[C@@H](O)c1ccc(Cl)cc1Cl [Compound 36, 1-(2,4-dichlorophenyl)-(S)-1-hydroxypropyl-(S)-2-carbamate] | 50 |  | ^a20.4 (33.3%) | inhibition in vivo at 60 mg/kg [4]: 37.5%; ACTH-refractory IS (ip) Peak Time [4]: 3 h
14 | CCC(OC(N)=O)C(O)c1ccccc1Cl (racemic) [Compound 8, 1-(2-chlorophenyl)-1-hydroxybutyl-2-carbamate] | 33.3 | ^a46 (50%) |  | 
15 | CCCNC(=O)O[C@H](C)[C@H](O)c1ccccc1Cl [Compound 23, 1-(2-chlorophenyl)-(R)-1-hydroxypropyl-(R)-2-N-propylcarbamate] | 16.7 | ^a46 (100%) |  | responders at 20.4 mg/kg ([2]; Mus musculus, ip, read-out: PTZ test (ip) in Mice Protection %): 50%
16 | C[C@@H](OC(N)=O)[C@H](O)c1cccc(Cl)c1Cl [Compound 47, 1-(2,3-dichlorophenyl)-(R)-1-hydroxypropyl-(R)-2-carbamate] |  |  |  | inhibition in vivo at 60 mg/kg [4]: 91%; ACTH-refractory IS (ip) Peak Time [4]: 3 h
17 | C[C@H](OC(N)=O)[C@@H](O)c1cccc(Cl)c1Cl [Compound 38, 1-(2,3-dichlorophenyl)-(S)-1-hydroxypropyl-(S)-2-carbamate] | 50 | ^a46 (50%) |  | 
18 | CNC(=O)O[C@@H](C)[C@@H](O)c1ccccc1Cl [Compound 15, 1-(2-chlorophenyl)-(S)-1-hydroxypropyl-(S)-2-N-methylcarbamate] | 50 | ^a46 (100%) |  | inhibition in vivo at 60 mg/kg [4]: 67.4%; ACTH-refractory IS (ip) Peak Time [4]: 2 h; PTZ test (ip) in Rats Protection % [5]: ^b25 (33.3%)
19 | CC[C@H](OC(N)=O)[C@@H](O)c1ccccc1Cl [Compound 6, 1-(2-chlorophenyl)-(S)-1-hydroxybutyl-(S)-2-carbamate] | 66.7 | ^a46 (100%) |  | PTZ test (ip) in Mice Peak Time ([2]; ip): 0.5 h; inhibition in vivo at 60 mg/kg [4]: 76.2%; ACTH-refractory IS (ip) Peak Time [4]: 3 h
20 | C[C@@H](OC(=O)NC1CC1)[C@H](O)c1ccccc1Cl [Compound 25, 1-(2-chlorophenyl)-(R)-1-hydroxypropyl-(R)-2-N-cyclopropylcarbamate] |  | ^a46 (100%) | ^a20.4 (66.7%) | 
21 | CCCCC(OC(N)=O)C(O)c1ccccc1Cl (racemic) [Compound 14, 1-(2-chlorophenyl)-1-hydroxyhexyl-2-carbamate] | 16.7 |  | ^a20.4 (16.7%) | 
22 | CC[C@H](OC(N)=O)[C@@H](O)c1c(Cl)cccc1Cl [Compound 40, 1-(2,6-dichlorophenyl)-(S)-1-hydroxybutyl-(S)-2-carbamate] | 66.6 | ^a46 (100%) | ^a20.4 (33.3%) | 
23 | CCCC[C@H](OC(N)=O)[C@@H](O)c1ccc(Cl)cc1Cl [Compound 43, 1-(2,4-dichlorophenyl)-(S)-1-hydroxyhexyl-(S)-2-carbamate] | 16.6 |  |  | PTZ test (ip) in Rats Protection % [5]: ^b25 (33.3%)
24 | CCCNC(=O)OC(C)C(O)c1ccccc1Cl (racemic) [Compound 30, 1-(2-chlorophenyl)-1-hydroxypropyl-2-N-propylcarbamate] | 16.7 |  | ^a20.4 (33.3%) | 
25 | CCCC[C@H](OC(N)=O)[C@@H](O)c1c(Cl)cccc1Cl [Compound 44, 1-(2,6-dichlorophenyl)-(S)-1-hydroxyhexyl-(S)-2-carbamate] | 16.6 |  | ^a20.4 (33.3%) | 
26 | C[C@H](OC(N)=O)[C@@H](O)c1c(Cl)cccc1Cl [Compound 37, 1-(2,6-dichlorophenyl)-(S)-1-hydroxypropyl-(S)-2-carbamate] |  | ^a46 (100%) |  | ED50 ([1]; Mus musculus, ip, read-out: PIC (ip) ED50): 23.4 mg/kg; PIC (ip) Peak Time ([1]; mice): 0.25 h; PTZ test (ip) in Mice Peak Time ([2]; ip): 0.25 h; inhibition in vivo at 60 mg/kg [4]: 83.8%; ACTH-refractory IS (ip) Peak Time [4]: 3 h
27 | CCCC[C@H](OC(N)=O)[C@@H](O)c1ccccc1Cl [Compound 12, 1-(2-chlorophenyl)-(S)-1-hydroxyhexyl-(S)-2-carbamate] | 16.7 |  | ^a20.4 (33.3%) | 
